Ends that are not written are not given here.

Data set [1] deals with Human primary fibroblasts isolated from 3 healthy chronologically aged (elder) donors. The experiment in a line: 3-week exposure: senescence and proliferation. The format is cell-based. The conditions noted are these: 3.12 μM, days 7-28. Here is the method:
Human primary fibroblasts isolated from 3 healthy chronologically aged (elder) donors were used. These cells were cultured in DMEM (Dulbecco's Modified Eagle's Medium) supplemented with 10% v.v. fetal bovine serum (FBS), and 1% v.v. of penicillin/streptomycin solution (1,000 U·mL-1). Cells were kept in a 5% CO2, 37° C. and 95% humidity atmosphere. After expansion, these cells were seeded in T-75 flasks (250,000 cells per flask) and, 6 hours after plating, were incubated for 3 weeks (21 days) with Peptide 14 at 3.12 μM. A negative control comprised untreated cells, which received vehicle only. Day 0 was defined as the day cells started to be treated with Peptide 14. No Peptide 14 treatment was performed between days 21 and 28. Weekly, cellular senescence was assessed according to senescence associated β-galactosidase staining levels. Data was normalized to untreated group and plotted (FIG. 4, panel A). Cellular proliferation was also determined weekly. At days 7, 14, 21, and 28, cells were trypsinized and counted (FIG. 4, panel B). After counting, 250,000 cells were plated in new T-75 flasks. Three independent experiments (biological replicates) including three technical replicates were performed. Data was analyzed using T-test. Statistical significance was determined as p values equal or lower than 0.05.

For data set [2], the system named is human primary fibroblasts isolated from 3 healthy donors. The data set is described as follows: UVB-induced senescence. The format is cell-based. The note with it: 5 μM, 48 hours. Here is the method:
Cellular senescence may be caused by several different stimuli. In order to assess whether Peptide 14 was effective against UVB-induced and chemically-induced senescence, human primary fibroblasts isolated from 3 healthy donors were used. These cells were cultured in DMEM (Dulbecco's Modified Eagle's Medium) supplemented with 10% v.v. fetal bovine serum (FBS), and 1% v.v. of penicillin/streptomycin solution (1,000 U mL-1). Cells were kept in a 5% CO2, 37° C. and 95% humidity atmosphere. After expansion, these cells were seeded in 96-well plates (4,000 cells per well) and, 6 hours after plating, were submitted to either etoposide (20 μM) treatment for 24 hours, or exposed twice to 0.05 J/cm^2 of UVB radiation. […] After incubation, relative cellular senescence (assessed by the activity of senescence associated β-galactosidase staining relative to untreated control) was analyzed and plotted in column graphs. ATRX foci were also assessed following ATRX immunofluorescence staining. Graphs were built using the average ATRX foci detected per nuclei. […] Data was analyzed using with either t-test or ANOVA followed by a Bonferroni post-hoc test. Statistical significance was determined as p-values equal or lower than 0.05 (FIG. 6).

The subject of another data set is Caenorhabditis elegans. The data set is described as follows: C. elegans healthspan and lifespan. The format is in vivo. The conditions noted are these: at the concentrations tested (1 μM, 2 μM). As for the experimental part:
Senotherapeutic strategies can be linked to healthspan and lifespan extension in vivo. In order to assess whether Peptide 14 promotes extended healthspan and lifespan, Caenorhabditis elegans worms were used. Peptide 14 was added in the worm media (M9 buffer media) at different concentrations of 1 μM or 2 μM. Negative control worms received vehicle only. Two healthspan parameters were assessed i) pharyngeal pumping and ii) worm movement. Lifespan was also determined. For pharyngeal pumping analysis, 15 worms had their pharynx movement (pumping) observed daily and counted for 20 seconds. This experiment was repeated 3 times, by 2 different blind observers, employing different populations of animals at different days. Statistical difference was detected by analyzing each individual time point by One-Way ANOVA and Dunnet's post hoc test. All groups were compared with the H2O group. For worm movement analysis, the basic movement of C. elegans, also called thrashing, was measured daily for 15 worms. […] Statistical difference was detected by analyzing each individual time point by One-Way ANOVA and Dunnet's post hoc, and all groups were compared with the H2O group. […] The average lifespan was measured. Statistical difference was detected by analyzing each individual time point by One-Way ANOVA and Dunnet's post hoc, and all groups were compared with the H2O group (FIG. 15).

Data set [3] has as its system peripheral blood mononuclear cells (PBMCs). The data set is described as follows: PBMC viability / toxicity (MTT). The conditions noted are these: 1.56 μM to 150 μM. The format is cell-based, human. As for the experimental part: T cells may be involved in inflammation of various skin disorders. […] This study was approved by an IRB board. PBMCs were obtained from healthy volunteers. After isolation, the PBMCs were maintained in 96 wells and treated with different concentrations of Peptide 14 (1.56 μM to 150 μM) in order to assess toxicity of Peptide 14 to the PBMCs.
The viability and proliferation of PBMCs were analyzed by MTT assay. Briefly, after 5 days of treatment, the cells were incubated with […] MTT reagent for 4 hours. Then, 100 μL of DMSO was added into each well, and the absorbance was detected at 595 nm. Data was presented as percentage of proliferation/viability normalized to the negative control of untreated PBMCs (100% viability/proliferation).

Another data set has as its system U-937 macrophages. The note with it: 3.12 μM, absence or presence of 0.5 μg/mL LPS. The text has this: In some cases, monocytes and macrophages may be involved in inflammation of various skin disorders. In order to assess the effect of Peptide 14 on inflammation, an in vitro model of inflammation using monocytes and macrophages was used to study the effect of direct culture of the Peptide 14 with such cells. Cells from the U-937 cell line (Banco de Células do Rio de Janeiro—BCRJ cat. 0242) were used for experiments. According to BCRJ, the U-937 cell line was derived by Sundstrom and Nilsson in 1974 from malignant cells obtained from the pleural effusion of a patient with histiocytic lymphoma. Also, studies since 1979 have shown that U-937 cells can be induced to terminal monocytic differentiation by supernatants from human mixed lymphocyte cultures or phorbol myristic acid (PMA) stimulation.

The subject of data set [4] is peripheral blood mononuclear cells (PBMCs). The experiment in a line: PBMC proliferation with PHA activation (MTT). Type of data set: cell-based, human. The note with it: single agent, 5 days (Peptide 14 3.12 μM; rapamycin 100 nM; PHA 5 μg/mL). Here is the method: The effect of Peptide 14 on T cell activation was assessed by treating PBMCs stimulated with phytohaemagglutinin (PHA) with Peptide 14. PHA usually can trigger lymphocyte activation and cell division. PBMCs that were untreated with PHA or Peptide 14 served as negative control of lymphocyte activation. In the phytohaemagglutinin group, the PBMCs were activated with 5 μg/mL of PHA for 5 days. In the Peptide 14 and PHA group, the PBMCs were activated with 5 μg/mL of PHA and treated with 3.12 μM of Peptide 14 for 5 days. In the Peptide 14 group, the PBMCs were treated with 3.12 μM of Peptide 14 for 5 days. In the rapamycin group, the PBMCs were treated with 100 nM of rapamycin, a well-known immunosuppressive drug for 5 days. In the rapamycin+PHA group, the PBMCs were activated with 5 μg/mL of PHA and treated with 100 nM of rapamycin for 5 days. The viability and proliferation of PBMCs were analyzed by MTT assay. Briefly, after 5 days of treatment, the cells were incubated with […] MTT reagent for 4 hours. Then, 100 μL of DMSO was added into each well, and the absorbance was detected at 595 nm.

Data set [5] shares this test system. The data set is described as follows: PBMC mRNA of IFN-γ and IL-10 (RT-qPCR). The format is cell-based, human. The note with it: single agent, 5 days (Peptide 14 3.12 μM; rapamycin 100 nM; PHA 5 μg/mL). Here is the method: The effect of Peptide 14 on T cell activation was assessed by treating PBMCs stimulated with phytohaemagglutinin (PHA) with Peptide 14. PHA usually can trigger lymphocyte activation and cell division. PBMCs that were untreated with PHA or Peptide 14 served as negative control of lymphocyte activation. In the phytohaemagglutinin group, the PBMCs were activated with 5 μg/mL of PHA for 5 days. In the Peptide 14 and PHA group, the PBMCs were activated with 5 μg/mL of PHA and treated with 3.12 μM of Peptide 14 for 5 days. In the Peptide 14 group, the PBMCs were treated with 3.12 μM of Peptide 14 for 5 days. In the rapamycin group, the PBMCs were treated with 100 nM of rapamycin, a well-known immunosuppressive drug for 5 days. In the rapamycin+PHA group, the PBMCs were activated with 5 μg/mL of PHA and treated with 100 nM of rapamycin for 5 days. […] IFN-γ is typically produced in lymphocytes stimulated by PHA and may be used as marker of PBMC stimulation level. IL-10 is an anti-inflammatory cytokine. The cells from each of the experimental groups were processed for total RNA isolation, reverse transcription of the RNA and RT-qPCR. Data is represented as relative expression normalized to ubiquitous gene expression and untreated PBMC negative control.

For the substance ETAKHWLKGI [Peptide 14, ETAKHWLKGI], the “cell proliferation vs untreated control” value in data set [1] is reported as “No significant differences”. Moreover, in data set [2], the “cell number after UVB” value was “did not significantly alter cell number”. The “toxicity to C. elegans (worm movement)” value with Caenorhabditis elegans was “not toxic”. In addition, in data set [3], the “cell toxicity to PBMCs” value is reported as “nor any detectable cell toxicity” and the “cell viability vs untreated control PBMCs” value is “did not result in lower cell viabilities”. In the data set with U-937 macrophages, the “cell toxicity to U-937 macrophages” value is on record as “nor any detectable cell toxicity” and the “cell viability vs untreated control U-937 macrophages” value is recorded as “did not result in lower cell viabilities”.
With phytohaemagglutinin [PHA], the “relative PBMC proliferation, % of negative control” value in data set [4] is recorded as “about 130%”. In data set [5], the “relative expression level of IFN-γ vs negative control” value is on record as “about 15 fold” and the “relative expression level of IL-10 (negative control = 1)” value is on record as “near zero”.

These data come from patent US20250352608A1, “POLYPEPTIDES HAVING ANTI-INFLAMMATORY EFFECTS AND USES THEREOF” (OneSkin, Inc., priority 2020, published 2025).
